According to patent US8993561B2, “Nitrobenzothiazole derivatives, preparation thereof and therapeutic applications thereof” (Sanofi, priority 2010, dated 2015):
≈ marks a conversion by molar mass, not a printed value.

tested on: not given; test: not given; conditions: not given

Row | Structure (SMILES) | melting point [°C]
1 | O=C(NCCc1ccc(Cl)cc1)c1nc2cc(C(F)(F)F)cc([N+](=O)[O-])c2s1 | 140
2 | O=C(NCCC1CCOCC1)c1nc2cc(C(F)(F)F)cc([N+](=O)[O-])c2s1 [Compound 2, 7-nitro-N-[2-(tetrahydro-2H-pyran-4-yl)ethyl]-5-(trifluoromethyl)-1,3-benzothiazole-2-carboxamide] | 154

tested on: Mycobacterium tuberculosis H37Rv strain; test: Alamar blue (MABA) test, MIC on Mycobacterium tuberculosis H37Rv; format: cell-based; conditions: H37RV, read-out: fluorimetric MIC (minimum inhibitory concentration) with respect to the growth of Mycobacterium tuberculosis

Row | Structure (SMILES) | MIC [µM]
3 | O=C(NCCc1cccc(Cl)c1)c1nc2cc(C(F)(F)F)cc([N+](=O)[O-])c2s1 [Compound 16, N-[2-(3-chlorophenyl)-ethyl]-7-nitro-5-(trifluoromethyl)-1,3-benzothiazole-2-carboxamide] | < 0.5
4 | O=C(NCCc1ccccc1O)c1nc2cc(C(F)(F)F)cc([N+](=O)[O-])c2s1 [Compound 17, N-[2-(2-hydroxyphenyl)ethyl]-7-nitro-5-(trifluoromethyl)-1,3-benzothiazole-2-carboxamide] | < 0.5
5 | O=C(NCCc1ccc(O)cc1)c1nc2cc(C(F)(F)F)cc([N+](=O)[O-])c2s1 [Compound 18, N-[2-(4-hydroxyphenyl)ethyl]-7-nitro-5-(trifluoromethyl)-1,3-benzothiazole-2-carboxamide] | < 0.5
6 | O=C(NCCc1nc2ccccc2o1)c1nc2cc(C(F)(F)F)cc([N+](=O)[O-])c2s1 [Compound 38, N-[2-(1,3-benzoxazol-2-yl)ethyl]-7-nitro-5-(trifluoromethyl)-1,3-benzothiazole-2-carboxamide] | < 0.5

same assay, conditions: in vitro, Alamar blue (MABA), H37Rv strain, fluorescence reading, read-out: fluorimetric MIC (minimum inhibitory concentration) with respect to the growth of Mycobacterium tuberculosis

Row | Structure (SMILES) | MIC [µM]
7 | O=C(NCCC1CCOCC1)c1nc2cc(C(F)(F)F)cc([N+](=O)[O-])c2s1 [Compound 2, 7-nitro-N-[2-(tetrahydro-2H-pyran-4-yl)ethyl]-5-(trifluoromethyl)-1,3-benzothiazole-2-carboxamide] | < 0.5
8 | COc1ccc(CCNC(=O)c2nc3cc(C(F)(F)F)cc([N+](=O)[O-])c3s2)cc1 [Compound 7, N-[2-(4-methoxyphenyl)ethyl]-7-nitro-5-(trifluoromethyl)-1,3-benzothiazole-2-carboxamide] | < 0.5
9 | O=C(NCCN1CCc2ccccc2C1)c1nc2cc(C(F)(F)F)cc([N+](=O)[O-])c2s1 [Compound 9, N-[2-(1,2,3,4-tetrahydroisoquinolin-2(1H)-yl)ethyl]-7-nitro-5-(trifluoromethyl)-1,3-benzothiazole-2-carboxamide] | < 0.5
10 | O=C(NCCc1ccc(F)cc1)c1nc2cc(C(F)(F)F)cc([N+](=O)[O-])c2s1 [Compound 14, N-[2-(4-fluorophenyl)ethyl]-7-nitro-5-(trifluoromethyl)-1,3-benzothiazole-2-carboxamide] | < 0.5
11 | COc1ccc(CCNC(=O)c2nc3cc(C(F)(F)F)cc([N+](=O)[O-])c3s2)cc1OC [Compound 15, N-[2-(3,4-dimethoxyphenyl)ethyl]-7-nitro-5-(trifluoromethyl)-1,3-benzothiazole-2-carboxamide] | < 0.5
12 | O=C(NCCNc1ccccn1)c1nc2cc(C(F)(F)F)cc([N+](=O)[O-])c2s1 [Compound 21, 7-nitro-N-[2-(pyridin-2-ylamino)ethyl]-5-(trifluoromethyl)-1,3-benzothiazole-2-carboxamide] | < 0.5
13 | O=C(NCCN1CCSCC1)c1nc2cc(C(F)(F)F)cc([N+](=O)[O-])c2s1 [Compound 22, 7-nitro-N-[2-thiomorpholin-4-ylethyl)-5-(trifluoromethyl)-1,3-benzothiazole-2-carboxamide] | < 0.5
14 | Cc1cccnc1CCNC(=O)c1nc2cc(C(F)(F)F)cc([N+](=O)[O-])c2s1 [Compound 25, N-[2-(3-methylpyridin-2-yl)ethyl]-7-nitro-5-(trifluoromethyl)-1,3-benzothiazole-2-carboxamide] | < 0.5
15 | O=C(NCC(c1ccccc1)N1CCOCC1)c1nc2cc(C(F)(F)F)cc([N+](=O)[O-])c2s1 (stereo not drawn) [Compound 26, N-(2-morpholin-4-yl-2-phenylethyl)-7-nitro-5-(trifluoromethyl)-1,3-benzothiazole-2-carboxamide] | < 0.5
16 | CC1(C)CC(CCNC(=O)c2nc3cc(C(F)(F)F)cc([N+](=O)[O-])c3s2)(c2ccccc2)CCO1 (stereo not drawn) [Compound 27, N-[2-(2,2-dimethyl-4-phenyltetrahydro-2H-pyran-4-yl)ethyl]-7-nitro-5-(trifluoromethyl)-1,3-benzothiazole-2-carboxamide] | < 0.5
17 | Cc1nc(CCNC(=O)c2nc3cc(C(F)(F)F)cc([N+](=O)[O-])c3s2)sc1Cl [Compound 36, N-[2-(5-chloro-4-methyl-1,3-thiazol-2-yl)ethyl]-7-nitro-5-(trifluoromethyl)-1,3-benzothiazole-2-carboxamide] | < 0.5
18 | CCc1csc(CCNC(=O)c2nc3cc(C(F)(F)F)cc([N+](=O)[O-])c3s2)n1 [Compound 39, N-[2-(4-ethyl-1,3-thiazol-2-yl)ethyl]-7-nitro-5-(trifluoromethyl)-1,3-benzothiazole-2-carboxamide] | < 0.5
19 | Cc1nc(CCNC(=O)c2nc3cc(C(F)(F)F)cc([N+](=O)[O-])c3s2)sc1C [Compound 40, N-[2-(4,5-dimethyl-1,3-thiazol-2-yl)ethyl]-7-nitro-5-(trifluoromethyl)-1,3-benzothiazole-2-carboxamide] | < 0.5
20 | NNC(=O)c1ccncc1 [isoniazid, reference compound] | 0.36 (≈ 0.0494 µg/mL)
21 | CO[C@H]1/C=C/O[C@@]2(C)Oc3c(C)c(O)c4c(O)c(c(/C=N/N5CCN(C)CC5)c(O)c4c3C2=O)NC(=O)/C(C)=C\C=C\[C@H](C)[C@H](O)[C@@H](C)[C@@H](O)[C@@H](C)[C@H](OC(C)=O)[C@@H]1C [rifampicin, reference compound] | 0.12 (≈ 0.0988 µg/mL)
